From PubChem BioAssay (NCI)
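Interpolation was linear, between the two tested concentrations surrounding the appropriate level; five concentrations were tested over 48 hours in 96-well plates. TGI is the concentration that stops growth completely.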

Experiments:
Assay in all cases: DTP human tumour cell line panel, 48 h
[1] = test system: UO-31 renal
[2] = test system: NCI-H23 lung
[3] = test system: OVCAR-8 ovarian
[4] = test system: HOP-92 NSCLC
[5] = test system: HL-60(TB) leukemia
[6] = test system: OVCAR-4 ovarian
[7] = test system: SK-MEL-28 melanoma
[8] = test system: HT29 colon
[9] = test system: HCT-116 colon
[10] = test system: SNB-19 CNS
[11] = test system: NCI/ADR-RES ovarian
[12] = test system: SN12C renal
[13] = test system: MDA-MB-231 breast
[14] = test system: 786-0 renal
[15] = test system: SK-MEL-5 melanoma
[16] = test system: DU-145 prostate
[17] = test system: CAKI-1 renal
[18] = test system: SF-295 CNS
[19] = test system: COLO 205 colon
[20] = test system: RPMI-8226 leukemia
[21] = test system: PC-3 prostate
[22] = test system: NCI-H522 lung
[23] = test system: HCT-15 colon
[24] = test system: MOLT-4 leukemia
[25] = test system: MALME-3M melanoma
[26] = test system: HOP-62 NSCLC
[27] = test system: ACHN renal
[28] = test system: IGROV1 ovarian
[29] = test system: EKVX NSCLC
[30] = test system: SF-268 CNS
[31] = test system: HS 578T breast
[32] = test system: KM12 colon
[33] = test system: OVCAR-5 ovarian
[34] = test system: NCI-H460 lung
[35] = test system: HCC-2998 colon
[36] = test system: UACC-62 melanoma
[37] = test system: SK-MEL-2 melanoma
[38] = test system: SW-620 colon
[39] = test system: A549 NSCLC
[40] = test system: UACC-257 melanoma
[41] = test system: A498 renal
[42] = test system: SR leukemia
[43] = test system: SK-OV-3 ovarian
[44] = test system: NCI-H226 lung
[45] = test system: T-47D breast
[46] = test system: TK-10 renal
[47] = test system: CCRF-CEM leukemia
[48] = test system: SF-539 CNS
[49] = test system: MDA-N
[50] = test system: SNB-75 CNS
[51] = test system: RXF 393 renal
[52] = test system: U251 CNS
[53] = test system: LOX IMVI melanoma
[54] = test system: MDA-MB-435
[55] = test system: K-562 leukemia
[56] = test system: OVCAR-3 ovarian
[57] = test system: MCF7 breast
[58] = test system: M14 melanoma

In the case of c1ccc(N=c2sc3ccccc3sc2=Nc2ccccc2)cc1, the TGI [1] is reported as 2.93 µM, the TGI [2] is reported as 3.82 µM and the TGI [3] is reported as 4.08 µM. For the same molecule, the TGI [4] was 9.93 µM, the TGI [5] was over 100 µM and the TGI [6] was 3.68 µM. For the same molecule, the TGI [7] was 3.4 µM, the TGI [8] was 3.86 µM and the TGI [9] was 3.18 µM. The TGI [10] was 16.7 µM, the TGI [11] was 7.03 µM and the TGI [12] was 3.15 µM. It also gave a TGI [13] of 3.67 µM, a TGI [14] of 3.14 µM and a TGI [15] of 5.14 µM. For the same molecule, the TGI [16] was 17.1 µM, the TGI [17] was 4.59 µM and the TGI [18] was 12.5 µM. For the same molecule, the TGI [19] was 3.69 µM, the TGI [20] was over 100 µM and the TGI [21] was 25.5 µM. For the same molecule, the TGI [22] was 2.95 µM, the TGI [23] was 3.57 µM and the TGI [24] was over 100 µM. For the same molecule, the TGI [25] was 3.57 µM, the TGI [26] was 15.3 µM and the TGI [27] was 3.03 µM. The TGI [28] was 3.08 µM, the TGI [29] was 7.26 µM and the TGI [30] was 10.2 µM. The TGI [31] was 7.51 µM, the TGI [32] was 4.25 µM and the TGI [33] was 3.83 µM. It also gave a TGI [34] of 3.79 µM, a TGI [35] of 3.24 µM and a TGI [36] of 2.66 µM. For the same molecule, the TGI [37] was 3.45 µM, the TGI [38] was 3.27 µM and the TGI [39] was 9.1 µM. It also gave a TGI [40] of 12.7 µM, a TGI [41] of 5.65 µM and a TGI [42] of over 100 µM. It also gave a TGI [43] of 11.8 µM, a TGI [44] of 9.3 µM and a TGI [45] of 3.56 µM. It also gave a TGI [46] of 12.9 µM, a TGI [47] of over 100 µM and a TGI [48] of 3.42 µM. For the same molecule, the TGI [49] was 3.05 µM, the TGI [50] was 11.5 µM and the TGI [51] was 3.49 µM. For the same molecule, the TGI [52] was 3.3 µM, the TGI [53] was 3.43 µM and the TGI [54] was 3.99 µM. The TGI [55] was over 100 µM.
In the case of O=C(/C=C\c1ccccc1)Oc1ccc(/C=C2\CCCCC2=O)cc1, the TGI [1] is reported as over 100 µM, the TGI [2] is reported as over 100 µM and the TGI [56] is reported as over 100 µM. The TGI [3] was over 100 µM, the TGI [4] was over 100 µM and the TGI [5] was 35.2 µM. For the same molecule, the TGI [6] was over 100 µM, the TGI [7] was over 100 µM and the TGI [8] was 31.7 µM. For the same molecule, the TGI [9] was over 100 µM, the TGI [10] was over 100 µM and the TGI [12] was over 100 µM. For the same molecule, the TGI [13] was over 100 µM, the TGI [14] was over 100 µM and the TGI [15] was over 100 µM. For the same molecule, the TGI [16] was over 100 µM, the TGI [17] was 97.9 µM and the TGI [18] was over 100 µM. The TGI [19] was 62.9 µM, the TGI [20] was 50.6 µM and the TGI [21] was over 100 µM. It also gave a TGI [22] of over 100 µM, a TGI [23] of 79.7 µM and a TGI [24] of 16.5 µM. For the same molecule, the TGI [25] was over 100 µM, the TGI [57] was over 100 µM and the TGI [26] was over 100 µM. It also gave a TGI [27] of over 100 µM, a TGI [28] of over 100 µM and a TGI [29] of over 100 µM. The TGI [58] was over 100 µM, the TGI [30] was over 100 µM and the TGI [31] was over 100 µM. The TGI [32] was over 100 µM, the TGI [33] was over 100 µM and the TGI [34] was over 100 µM. The TGI [35] was over 100 µM, the TGI [36] was 0.136 µM and the TGI [37] was over 100 µM. For the same molecule, the TGI [38] was over 100 µM, the TGI [39] was over 100 µM and the TGI [40] was 87.3 µM. The TGI [41] was over 100 µM, the TGI [45] was over 100 µM and the TGI [46] was 43.2 µM. It also gave a TGI [47] of 27.2 µM, a TGI [48] of over 100 µM and a TGI [49] of over 100 µM. It also gave a TGI [50] of over 100 µM, a TGI [52] of over 100 µM and a TGI [53] of over 100 µM. For the same molecule, the TGI [54] was 84.6 µM.
With C/C1=C\[C@H](C)C[C@H](C)OC(=O)C[C@H](c2ccc(O)cc2)NC(=O)[C@H](Cc2ccc(O)c(Br)c2)N(C)C(=O)[C@H](C)NC(=O)[C@@H](C)C1 the TGI [1] was over 25 µM, the TGI [2] was over 25 µM and the TGI [56] was over 25 µM. For the same molecule, the TGI [3] was over 25 µM, the TGI [4] was over 25 µM and the TGI [6] was over 25 µM. For the same molecule, the TGI [7] was over 25 µM, the TGI [8] was over 25 µM and the TGI [9] was over 25 µM. The TGI [10] was over 25 µM, the TGI [11] was over 25 µM and the TGI [12] was over 25 µM. The TGI [13] was over 25 µM, the TGI [14] was over 25 µM and the TGI [15] was over 25 µM. The TGI [16] was over 25 µM, the TGI [18] was over 25 µM and the TGI [19] was over 25 µM. For the same molecule, the TGI [20] was over 25 µM, the TGI [21] was over 25 µM and the TGI [22] was over 25 µM. It also gave a TGI [23] of over 25 µM, a TGI [24] of over 25 µM and a TGI [25] of over 25 µM. For the same molecule, the TGI [57] was over 25 µM, the TGI [26] was over 25 µM and the TGI [27] was over 25 µM. It also gave a TGI [28] of over 25 µM, a TGI [29] of over 25 µM and a TGI [58] of over 25 µM. The TGI [30] was over 25 µM, the TGI [31] was over 25 µM and the TGI [32] was over 25 µM. It also gave a TGI [33] of over 25 µM, a TGI [36] of over 25 µM and a TGI [37] of over 25 µM. It also gave a TGI [38] of over 25 µM, a TGI [39] of over 25 µM and a TGI [41] of over 25 µM. The TGI [42] was over 25 µM, the TGI [43] was over 25 µM and the TGI [44] was over 25 µM. The TGI [46] was over 25 µM, the TGI [47] was over 25 µM and the TGI [49] was over 25 µM. The TGI [50] was over 25 µM, the TGI [52] was over 25 µM and the TGI [53] was over 25 µM. The TGI [54] was over 25 µM and the TGI [55] was over 25 µM.
Work on Cc1cc(C)n(-c2nc3ccccc3c(=O)n2-c2ccccc2)n1 yielded a TGI [1] of 14.3 µM, a TGI [2] of over 100 µM and a TGI [56] of over 100 µM. It also gave a TGI [3] of over 100 µM, a TGI [5] of over 100 µM and a TGI [6] of over 100 µM. For the same molecule, the TGI [7] was over 100 µM, the TGI [8] was over 100 µM and the TGI [9] was over 100 µM. It also gave a TGI [10] of over 100 µM, a TGI [11] of over 100 µM and a TGI [12] of over 100 µM. It also gave a TGI [13] of over 100 µM, a TGI [14] of over 100 µM and a TGI [15] of over 100 µM. The TGI [16] was over 100 µM, the TGI [17] was over 100 µM and the TGI [18] was over 100 µM. For the same molecule, the TGI [19] was over 100 µM, the TGI [21] was over 100 µM and the TGI [22] was over 100 µM. The TGI [23] was over 100 µM, the TGI [24] was over 100 µM and the TGI [25] was over 100 µM. The TGI [57] was over 100 µM, the TGI [26] was over 100 µM and the TGI [27] was over 100 µM. It also gave a TGI [28] of over 100 µM, a TGI [58] of over 100 µM and a TGI [30] of over 100 µM. It also gave a TGI [33] of over 100 µM, a TGI [34] of over 100 µM and a TGI [35] of over 100 µM. The TGI [37] was over 100 µM, the TGI [38] was over 100 µM and the TGI [39] was over 100 µM. For the same molecule, the TGI [40] was over 100 µM, the TGI [41] was over 100 µM and the TGI [42] was over 100 µM. The TGI [43] was over 100 µM, the TGI [44] was over 100 µM and the TGI [45] was over 100 µM. The TGI [46] was over 100 µM, the TGI [47] was over 100 µM and the TGI [48] was over 100 µM. For the same molecule, the TGI [49] was over 100 µM, the TGI [50] was over 100 µM and the TGI [51] was over 100 µM. It also gave a TGI [52] of over 100 µM, a TGI [53] of over 100 µM and a TGI [54] of over 100 µM. The TGI [55] was over 100 µM.
